Here are results for 18 molecules from patent publication US11339151B2, “Aliphatic acid amide derivative” (Sumitomo Dainippon Pharma Co., Ltd., priority 2019, dated 2022).

pIC50, pKi: −log10 of the molar value.

In series [1] the target is T1, human 5-HT7 receptor (Homo sapiens (Human), UniProt P34969). In words: Test 2: antagonist activity for human 5-HT7 receptor (aequorin luminescence, CHO-K1 cells). The series is classed as cell-based. As to conditions: Gα16. How it is done: (§1) Test 2: Evaluation of Antagonist Activity for Human 5-HT2A Receptor and Human 5-HT7 Receptor
(§2) Aequorin, Gα 16 protein, and each receptor were transiently expressed in CHO-K1 cells (Chinese hamster ovary). The cells were cultivated in a CO2 incubator at 37° C. overnight, seeded into a 384-well plate, and stood at room temperature for 2 hours. Each compound dissolved in DMSO was added thereto, and changes in luminescence were measured by FDSS/μCELL drug discovery screening support system (Hamamatsu Photonics K.K.). As for antagonist activity, inhibitory activity of each compound was calculated by setting the luminescence level of wells to which 10 μmol/L endogenous ligand was added as 100%.

Another series addresses hERG channel (Homo sapiens (Human), UniProt Q12809). Description: Test 5: inhibitory activity for hERG channel (whole cell patch clamp, hERG-CHO cells). In kind it is cell-based. The note with it: hERG-CHO cells, auto patch clamp. As for the experimental part: Test 5: Evaluation of Inhibitory Activity for hERG Channel
Inhibitory activity of the present compound for hERG channel was measured by whole cell patch clamp method with an auto patch clamp system using CHO cells in which hERG channel involved in human rapidly activating delayed rectifier potassium current (IKr) was forcibly expressed.
hERG-CHO cells purchased from ChanTest Cop. were cultured in a CO2 incubator at 37° C., and dissociated from a flask with trypsin shortly before the measurement of hERG current to prepare a cell suspension.
The cell suspension, the extracellular fluid, the intracellular fluid, and the measurement plate were set in an auto patch clamp system, and hERG current was measured by whole cell patch clamp method. […] Each pulse interval was 15 seconds. The data analysis was carried out with Qube Assay Software (Sophion Sophion). The test was carried out by applying incrementally 4 concentrations of each test compound, and the average of the maximum peak tail currents which were obtained from the last 3 stimulations in each concentration was determined as the evaluated data.

Series [2] in a line: Test 3-1: metabolic stability test in human hepatic microsome. The series is classed as in vitro ADME. As to conditions: microsome 0.1 mg/mL, test compound 0.1 μmol/L, 37° C., 30 minutes. How it is done:
Test 3-1: Metabolic Stability Test in Human Hepatic Microsome
(§3) The metabolic stability of the present compound in human hepatic microsome was evaluated as mentioned below. Human hepatic microsome was obtained from Xenontech. Human hepatic microsome, NADPH, and each test compound were mixed in 25 mmol/L phosphate buffer solution (pH 7.4) to reach the following concentrations as shown below, and the mixture was incubated at 37° C. for 30 minutes. • Human hepatic microsome: 0.1 mg/mL • NADPH: 3.2 mmol/L • Test compound: 0.1 μmol/L
The residual ratio of test compound in each sample after 30 minutes was measured by LC-MS, and the metabolic stability in human hepatic microsome was calculated from the following formula. Metabolic stability in human hepatic microsome (mL/min/mg protein)=−LN (residual ratio)/30/0.1

The nature of series [3]: Test 4: predictive test of human half life. The note with it: calculated from rat distribution volume, serum unbound fraction and Test 3-2 stability. As for the experimental part: Test 4: Predictive Test of Human Half Life
The present compound was intravenously administered to a rat as an aqueous solution of 0.01 mol/L hydrochloric acid. Blood was collected on 5 minutes, 15 minutes, 30 minutes, 1 hour, 2 hours, 4 hours, 6 hours, and 24 hours after the administration. Plasma was obtained from the collected blood, the drug concentration in plasma was measured by LC-MS, and the distribution volume of rat was calculated from the transition of the concentration.
The unbound fraction rate of the present compound in human or rat serum was measured by equilibrium dialysis method.
The half-life in human was calculated according to the following formula using the results of the distribution volume of rat, the unbound fraction rate in human or rat serum, and the metabolic stability in human hepatic microsome obtained in Test 3-2.

A short description of series [4]: Test 3-2: metabolic stability test in human hepatic microsome. In kind it is in vitro ADME. The note with it: microsome 0.5 or 1.0 mg/mL, test compound 0.1 μmol/L, 30 or 60 minutes. How it is done:
Test 3-2: Metabolic Stability Test in Human Hepatic Microsome
as §3, with “For more accurate evaluation of the metabolic stability in human hepatic microsome, the metabolic” for “The metabolic”, “evaluated at an appropriate concentration of human hepatic microsome” for “evaluated”, “for 60” for “for 30”, “microsome: 0.5 or 1.0” for “microsome: 0.1”, “• NAPDH:” for “• NADPH:”
The residual ratio of a test compound in each sample after 30 or 60 minutes was measured by LC-MS, and the metabolic stability in human hepatic microsome was calculated from the following formula. Metabolic stability in human hepatic microsome (mL/min/mg protein)=−LN (residual ratio)/reaction time/concentration of human hepatic microsome

For another series, the target named is human D2 receptor (Homo sapiens (Human), UniProt P14416). In words: Test 1: binding activity for human D2 receptor ([3H]Spiperone, CHO cell membrane fraction). The note with it: [3H]Spiperone, room temperature 60 minutes. How it is done: (§4) Ki value was evaluated from dissociation constant which was calculated from saturated binding tests, and a substrate concentration, and it was used as an index for binding affinity.

The target of series [5] is T1, human 5-HT7 receptor. Description: Test 1: binding activity for human 5-HT7 receptor ([3H]SB-269970, CHO cell membrane fraction). The note with it: [3H]SB-269970, room temperature 60 minutes. As for the experimental part:
as §4

Another series concerns the target human 5-HT2A receptor (Homo sapiens (Human), UniProt P28223). In words: Test 2: antagonist activity for human 5-HT2A receptor (aequorin luminescence, CHO-K1 cells). The note with it: Gα16. The series is classed as cell-based. How it is done:
as §1, §2

Sequence of hERG channel (Q12809 whole entry): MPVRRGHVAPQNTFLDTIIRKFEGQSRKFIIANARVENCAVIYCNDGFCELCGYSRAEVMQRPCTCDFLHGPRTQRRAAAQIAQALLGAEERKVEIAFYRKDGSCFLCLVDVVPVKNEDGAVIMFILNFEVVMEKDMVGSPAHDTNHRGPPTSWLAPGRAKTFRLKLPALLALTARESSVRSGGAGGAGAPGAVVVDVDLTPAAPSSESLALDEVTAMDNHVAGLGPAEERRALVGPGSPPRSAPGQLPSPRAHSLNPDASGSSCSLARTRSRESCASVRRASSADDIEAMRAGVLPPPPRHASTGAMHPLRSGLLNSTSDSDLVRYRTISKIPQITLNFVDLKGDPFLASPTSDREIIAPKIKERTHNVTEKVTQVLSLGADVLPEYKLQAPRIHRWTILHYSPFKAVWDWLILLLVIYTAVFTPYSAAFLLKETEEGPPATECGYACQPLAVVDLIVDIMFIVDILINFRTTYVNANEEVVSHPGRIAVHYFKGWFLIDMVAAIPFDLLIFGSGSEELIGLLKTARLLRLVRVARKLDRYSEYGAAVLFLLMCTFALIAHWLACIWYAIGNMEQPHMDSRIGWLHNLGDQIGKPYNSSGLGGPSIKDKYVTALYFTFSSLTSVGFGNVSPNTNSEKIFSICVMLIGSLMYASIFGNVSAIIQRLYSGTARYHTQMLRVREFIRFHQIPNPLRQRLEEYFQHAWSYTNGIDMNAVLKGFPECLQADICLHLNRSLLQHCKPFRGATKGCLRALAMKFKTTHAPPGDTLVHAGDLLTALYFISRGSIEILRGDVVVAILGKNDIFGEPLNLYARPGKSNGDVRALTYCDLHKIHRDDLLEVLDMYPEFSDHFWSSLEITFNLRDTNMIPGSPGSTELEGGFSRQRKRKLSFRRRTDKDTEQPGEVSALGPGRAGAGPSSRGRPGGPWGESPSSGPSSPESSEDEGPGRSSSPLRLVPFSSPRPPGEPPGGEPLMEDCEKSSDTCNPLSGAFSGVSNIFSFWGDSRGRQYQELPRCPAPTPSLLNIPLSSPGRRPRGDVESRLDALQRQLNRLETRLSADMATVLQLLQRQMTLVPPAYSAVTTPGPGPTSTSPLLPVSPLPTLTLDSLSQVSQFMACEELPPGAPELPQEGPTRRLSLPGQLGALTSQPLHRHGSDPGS
Sequence of human D2 receptor (P14416 whole entry): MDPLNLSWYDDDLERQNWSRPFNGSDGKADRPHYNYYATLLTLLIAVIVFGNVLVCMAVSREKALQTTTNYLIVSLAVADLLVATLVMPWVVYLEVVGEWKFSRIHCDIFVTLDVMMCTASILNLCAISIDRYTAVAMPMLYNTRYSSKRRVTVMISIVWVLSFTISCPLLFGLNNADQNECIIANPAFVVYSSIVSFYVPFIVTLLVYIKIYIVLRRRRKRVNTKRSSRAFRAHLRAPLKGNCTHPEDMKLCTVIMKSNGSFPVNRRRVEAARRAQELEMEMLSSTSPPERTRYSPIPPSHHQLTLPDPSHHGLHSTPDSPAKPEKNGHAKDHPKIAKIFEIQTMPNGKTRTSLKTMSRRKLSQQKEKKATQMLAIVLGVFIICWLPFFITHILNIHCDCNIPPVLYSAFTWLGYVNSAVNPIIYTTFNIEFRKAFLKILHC
T1 sequence (P34969 whole entry): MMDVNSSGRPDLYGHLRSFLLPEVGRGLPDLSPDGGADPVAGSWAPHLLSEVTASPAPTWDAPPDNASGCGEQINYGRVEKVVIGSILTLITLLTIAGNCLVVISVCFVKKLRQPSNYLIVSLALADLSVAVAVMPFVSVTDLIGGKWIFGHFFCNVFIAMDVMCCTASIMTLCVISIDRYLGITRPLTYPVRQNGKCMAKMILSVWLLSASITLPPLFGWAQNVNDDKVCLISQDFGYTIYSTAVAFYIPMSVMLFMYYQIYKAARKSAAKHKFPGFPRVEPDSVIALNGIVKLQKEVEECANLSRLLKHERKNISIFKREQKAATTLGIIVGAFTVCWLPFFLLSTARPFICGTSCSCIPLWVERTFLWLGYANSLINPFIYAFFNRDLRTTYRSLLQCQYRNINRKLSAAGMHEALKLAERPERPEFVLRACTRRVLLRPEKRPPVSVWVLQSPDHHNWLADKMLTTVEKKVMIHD
Sequence of human 5-HT2A receptor (P28223 whole entry): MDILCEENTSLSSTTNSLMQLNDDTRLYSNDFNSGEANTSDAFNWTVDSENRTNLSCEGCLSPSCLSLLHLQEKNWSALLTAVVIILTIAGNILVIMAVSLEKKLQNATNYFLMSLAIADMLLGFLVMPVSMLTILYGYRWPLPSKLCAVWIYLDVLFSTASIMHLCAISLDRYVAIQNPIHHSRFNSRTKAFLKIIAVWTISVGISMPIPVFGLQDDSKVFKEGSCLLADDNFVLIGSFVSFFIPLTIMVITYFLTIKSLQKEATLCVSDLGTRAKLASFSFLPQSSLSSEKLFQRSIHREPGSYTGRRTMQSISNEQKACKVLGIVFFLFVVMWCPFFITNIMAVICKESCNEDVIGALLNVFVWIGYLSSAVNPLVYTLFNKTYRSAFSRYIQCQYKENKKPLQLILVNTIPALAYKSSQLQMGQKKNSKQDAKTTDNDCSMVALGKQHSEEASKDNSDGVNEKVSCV

By pIC50 is commonly meant the IC50 on a negative log10 scale, so that one unit is a factor of ten. With `CCN(CCN1CCC(c2noc3cc(F)ccc23)CC1)C(=O)CCO` [Example 17, N-Ethyl-N-{2-[4-(6-fluoro-1,2-benzoisoxazol-3-yl)piperidin-1-yl]ethyl}-3-hydroxypropanamide], the pIC50 was 7.18 against human 5-HT7 receptor [1] and 5.55 against hERG channel. Also, the “Metabolic stability in human hepatic microsome” value (“Metabolic stability” below) in series [2] is given as less than 0.05 mL/min/mg protein; in series [4], 0.0025 mL/min/mg protein. For the same molecule, the Predicted half-life in series [3] is recorded as 27 h.

Usually pKi stands for the negative decadic logarithm of the Ki, by convention in mol/L. High values mean a small Ki, low ones a large Ki. Take `CCN(CCN1CCC(c2c[nH]c3ccccc23)CC1)C(=O)[C@H](C)O` [Example 23, (2S)—N-Ethyl-2-hydroxy-N-{2-[4-(1H-indol-3-yl)piperidin-1-yl]ethyl}propanamide]: the negative logarithm of the Ki (pKi) at human D2 receptor is less than 6.00; at human 5-HT7 receptor [5], 8.10. Also, the pIC50 against human 5-HT7 receptor [1] was 7.17; at hERG channel it was less than 5.00. In series [2], the “Metabolic stability” value is less than 0.05 mL/min/mg protein.

In the case of `CCN(CCN1CCC(c2noc3cc(F)ccc23)CC1)C(=O)CC(C)O` (centres unmarked) [Example 10], the values for the negative logarithm of the Ki (pKi) on human D2 receptor and on human 5-HT7 receptor [5] were more than 7.00 and 8.57, respectively. Besides, the figures for the pIC50 on human 5-HT7 receptor [1] and against hERG channel were 8.05 and 5.44, respectively. In series [2], the “Metabolic stability” value was less than 0.05 mL/min/mg protein.

With `CCN(CCCN1CCC(c2noc3cc(F)ccc23)CC1)C(=O)[C@H](C)O` [Example 38], the results for the pKi at human D2 receptor and at human 5-HT7 receptor [5] were 6.45 and 8.02, respectively. For the same molecule, the pIC50 at human 5-HT7 receptor [1] was 7.23; against hERG channel, less than 5.00. Besides, the “Metabolic stability” value in series [2] is recorded as less than 0.05 mL/min/mg protein.

On to `CC(C)N(CCN1CCC(c2noc3cc(F)ccc23)CC1)C(=O)[C@H](C)O` [Example 41], for which the pKi at human D2 receptor was more than 7.00; at human 5-HT7 receptor [5] it was 8.74. For the same molecule, the pIC50 on human 5-HT7 receptor [1] was 8.15; against hERG channel, 5.17. Further, the “Metabolic stability” value in series [2] is less than 0.05 mL/min/mg protein.

As for `CCN(CCN1CCC(c2noc3cc(F)ccc23)CC1)C(=O)C1(O)CCOCC1` [Example 11], the pKi was more than 7.00 at human D2 receptor and 8.28 on human 5-HT7 receptor [5]. In addition, the values for the pIC50 at human 5-HT7 receptor [1] and against hERG channel were 7.17 and 4.98, respectively. Besides, the “Metabolic stability” value in series [2] was less than 0.05 mL/min/mg protein.

As for `CCN(CCN1CCC(c2noc3cc(F)ccc23)CC1)C(=O)C1CN(C)CC1O` (centres unmarked) [Example 75, N-Ethyl-N-{2-[4-(6-fluoro-1,2-benzoisoxazol-3-yl)piperidin-1-yl]ethyl}-4-hydroxy-1-methylpyrrolidine-3-carboxamide], the pKi on human D2 receptor was 6.91; on human 5-HT7 receptor [5] it was 8.44. In addition, the pIC50 at human 5-HT7 receptor [1] was 7.10; at hERG channel it was 5.42. In addition, the “Metabolic stability” value in series [2] was less than 0.05 mL/min/mg protein.

In the case of `CCN(CCN1CCC(n2ncc3cc(F)ccc32)CC1)S(=O)(=O)C(C)CO` (centres unmarked) [Example 64], the figures for the pKi at human D2 receptor and at human 5-HT7 receptor [5] were 6.46 and 8.62, respectively. For the same molecule, the pIC50 on human 5-HT7 receptor [1] was 7.00; at hERG channel it was less than 5.00. Moreover, the “Metabolic stability” value in series [2] was 0.097 mL/min/mg protein.

Turning to `CCN(CCN1CCC(c2c[nH]c3cc(F)ccc23)CC1)S(=O)(=O)CCO` [Example 62], the values for the negative logarithm of the Ki (pKi) at human D2 receptor and on human 5-HT7 receptor [5] were 6.98 and 8.55, respectively. Also, the results for the pIC50 against human 5-HT7 receptor [1] and at hERG channel were 7.55 and 5.27, respectively. The “Metabolic stability” value in series [2] is less than 0.05 mL/min/mg protein.

For the molecule `CCN(CCN1CCC(c2noc3ccccc23)CC1)S(=O)(=O)CCO` [Example 61], the pKi on human D2 receptor was 6.29; on human 5-HT7 receptor [5], 7.90. Further, the pIC50 is 7.82 on human 5-HT7 receptor [1] and less than 5.00 against hERG channel. Also, the “Metabolic stability” value in series [2] is listed as less than 0.05 mL/min/mg protein.

With `CCN(CCN1CCC(c2c[nH]c3ccccc23)CC1)C(=O)C(C)O` (centres unmarked) [Example 22, N-Ethyl-2-hydroxy-N-{2-[4-(1H-indol-3-yl)piperidin-1-yl]ethyl}propanamide], the pKi on human D2 receptor is 6.28; on human 5-HT7 receptor [5], 8.24. Also, the pIC50 is 7.40 against human 5-HT7 receptor [1] and less than 5.00 on hERG channel. Besides, the “Metabolic stability” value in series [2] is recorded as less than 0.05 mL/min/mg protein.

As to `CC(C)N(CCN1CCC(c2noc3cc(F)ccc23)CC1)C(=O)CCO` [Example 35], the results for the pKi at human D2 receptor and at human 5-HT7 receptor [5] were more than 7.00 and 8.42, respectively. The pIC50 against human 5-HT7 receptor [1] is 7.09; on hERG channel, 5.37. Moreover, in series [2], the “Metabolic stability” value is less than 0.05 mL/min/mg protein.

Turning to `CCN(CCN1CCC(c2noc3cc(F)c(C)cc23)CC1)S(=O)(=O)CCO` [Example 58], the pKi at human D2 receptor was less than 6.00; on human 5-HT7 receptor [5], 7.71. The pIC50 against human 5-HT7 receptor [1] was 6.99; against hERG channel, less than 5.00. Besides, in series [2], the “Metabolic stability” value is on record as less than 0.05 mL/min/mg protein.

For `CCN(CCN1CCC(c2c[nH]c3cc(F)ccc23)CC1)C(=O)CCO` [Example 48], the figures for the pKi at human D2 receptor and at human 5-HT7 receptor [5] were 7.10 and 8.57, respectively. In addition, the pIC50 against human 5-HT7 receptor [1] was 7.74; against hERG channel, 5.54. In series [2], the “Metabolic stability” value was less than 0.05 mL/min/mg protein.

On to `CCN(CCN1CCC(c2noc3cc(F)ccc23)CC1)C(=O)[C@H](C)O` [Example 16, (2S)—N-Ethyl-N-{2-[4-(6-fluoro-1,2-benzoisoxazol-3-yl)piperidin-1-yl]ethyl}-2-hydroxypropanamide], for which, on hERG channel, the pIC50 was 5.32. The “Metabolic stability” value in series [2] is less than 0.05 mL/min/mg protein; in series [4] it was 0.018 mL/min/mg protein. For the same molecule, the Predicted half-life in series [3] was 3 h.

Regarding `CCN(CCN1CCC(c2noc3cc(F)ccc23)CC1)C(=O)C1(O)CCCN(C(C)=O)C1` (centres unmarked) [Example 72], the pKi at human D2 receptor was more than 7.00; on human 5-HT7 receptor [5], 7.97. Further, the pIC50 at human 5-HT7 receptor [1] is 8.10; on hERG channel, 5.00. Further, the “Metabolic stability” value in series [2] came out at 0.057 mL/min/mg protein.

Take `CCN(CCN1CCC(n2ccc3cc(F)ccc32)CC1)C(=O)C(C)O` (centres unmarked) [Example 50]: the pKi is less than 6.00 on human D2 receptor and 7.87 at human 5-HT7 receptor [5]. Further, the pIC50 is 7.09 against human 5-HT7 receptor [1] and 7.31 on human 5-HT2A receptor. Further, the “Metabolic stability” value in series [2] is given as less than 0.05 mL/min/mg protein.

Consider `CCN(CCN1CCC(c2c[nH]c3ccccc23)CC1)S(=O)(=O)CCO` [Example 57], for which the pKi at human D2 receptor is 6.68; at human 5-HT7 receptor [5] it was 8.06. Further, the results for the negative logarithm of the IC50 (pIC50) on human 5-HT7 receptor [1] and against human 5-HT2A receptor were 7.00 and 7.25, respectively. For the same molecule, the “Metabolic stability” value in series [2] came to 0.06 mL/min/mg protein.
